Measured values taken from patent US7202239B2, “Cyclohexylphenyl carboxamides tocolytic oxytocin receptor antagonists” (Wyeth, priority 2001, dated 2007).

Molecular target: T1, human oxytocin receptor (Homo sapiens, UniProt P30559)
T1 sequence (P30559 1-389): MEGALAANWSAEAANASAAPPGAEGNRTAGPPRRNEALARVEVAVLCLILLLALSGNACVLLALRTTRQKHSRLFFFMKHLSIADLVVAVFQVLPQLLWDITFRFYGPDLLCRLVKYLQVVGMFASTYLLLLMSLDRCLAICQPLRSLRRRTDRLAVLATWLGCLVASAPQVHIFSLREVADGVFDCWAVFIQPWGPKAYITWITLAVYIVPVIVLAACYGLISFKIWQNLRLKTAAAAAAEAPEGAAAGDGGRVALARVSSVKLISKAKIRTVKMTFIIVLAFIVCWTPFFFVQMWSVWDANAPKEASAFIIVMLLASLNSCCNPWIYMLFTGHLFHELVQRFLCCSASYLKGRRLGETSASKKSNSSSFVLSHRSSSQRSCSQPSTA
Test: Oxytocin binding in CHO cell membranes expressing human oxytocin receptors
Conditions: 100 nM, [3H]oxytocin; for inhibition at 0.1 µM: read-out: OT % inhibition at 100 nM
Excerpt: Oxytocin Binding in Chinese Hamster Ovary Cell Membranes Expressing Human Oxytocin Receptors
Chinese Hamster Ovary (CHO) cells stably transfected with the human oxytocin receptor (cf. Tanizawa et al., U.S. Pat. No. 5,466,584 (1995) to Rohto Pharmaceutical Co. Ltd., Osaka, Japan) were obtained from M. Thibonnier, Case Western Reserve University School of Medicine, Cleveland, Ohio. A. Passaging and Amplification of Cells: CHO cells transfected with the human oxytocin receptors obtained from M. Thibonnier (pcDNA3.1 vector) are allowed to grow to confluency (approx. >90%) in T-150 flasks under sterile conditions, in a cell culture medium of F-12 Nutrient Mixture (HAM) with L-glutamine (Gibco Cat. # 11765-054) containing 15 mM HEPES (Gibco Cat. # 15630-080), 1% antibiotic/antimycotic (add 5 mL 100×, Gibco Cat. # 15240-062 per 500 mL F-12), 400 μg/mL of Geneticin (add 4 mL of 50 mg/mL per 500 mL F-12) and 10% Fetal Bovine Serum (Qualified, heat inactivated, Gibco Cat. # 16140-063). The medium is removed by aspiration and the cells are washed with 10 mL of Hank's Balanced Salt solution (Gibco Cat. # 14175-095). The salt solution is removed by aspiration and the cells trypsinized with 5 mL of trypsin-EDTA (0.05% trypsin, 0.53 mM EDTA-4Na, Gibco Cat. # 25300-070) for 1 min The trypsin is removed by aspiration and the cells dislodged by tapping. Cell Culture medium (e.g. 30 mL for 1:30 split) is immediately added and mixed well to inactivate trypsin. 1 mL of detached cells is added to new culture flasks containing fresh Cell Culture medium (e.g. into 25 mL per T-150 flask), and mixed gently. The cells are incubated at 37° C. in 5% CO2. The medium is changed at 3 to 4 days interval (or as appropriate). The cells grow to confluency (approx. >75%–95%) within 7–8 days. All steps are done under sterile conditions. B. Membrane Preparation: The cells are washed twice gently with Hank's Balanced Salt solution (eg, use 10 mL per T-150 flask). The excess solution is removed and the cells bathed for 15–30 min. in an enzyme-free Cell Dissociation Buffer (eg, use 8 mL Hank's Based, Gibco Cat. # 13150-016 per T-150 flask) until cells are loosened. The contents are transferred to centrifuge tubes (50 mL size) kept in ice bath. All subsequent steps are done at 4° C. The tubes are centrifuged at 300×g for 15 min (1380 rpm on SORVAL, Model RT6000D, using rotor for 50 mL tubes). The supernatant is discarded and the cells suspended in homogenizing buffer (10 mM Tris-HCl containing 0.25 M sucrose and 1 mM EDTA, pH 7.4) ensuring that the volume of the buffer is about ten times the volume of the cell pellet. The cells are pooled into a centrifuge tube (50 mL) and homogenized with a Polytron at setting 6 for 10 sec. The homogenate is transferred into a Potter-Elvjehm homogenizer and homogenized with 3 strokes. The homogenate is centrifuged at 1500×g for 10 min at 4° C. (3100 rpm using SORVAL, model RT6000D, using rotor for 50 mL tubes). The pellet is discarded. The supernatant is centrifuged at 100,000×g for 60 min. at 4° C. (Beckman L8-80M ultracentrifuge; spin at 37,500 rpm with rotor type 70 Ti for 50 mL tubes; 38,000 rpm with type 80Ti for 15 mL tubes; or 35,800 rpm with rotor type 45Ti). The supernantant is discarded and the pellet suspended in 3 to 4 mL of Tris buffer (50 mM TRIS-HCl, pH 7.4). The protein content is estimated by the Bradford or Lowry method. The volume of the membrane suspension is adjusted with the membrane buffer (50 mM Tris-HCl containing 0.1% BSA and 0.1 mM PMSF) to give 3.0 mg/mL (or as appropriate) of protein. The membranes are aliquoted and stored at −70° C. C. Radioligand Binding Assay: In wells of a 96-well format microtiter plate, is added 90, 110 or 130 μL (to make up a final volume of 200 μL) of assay buffer containing 50 mM of Tris-HCl (pH 7.4), […], 1 mg % aprotinin, 1 mg % leupeptin, 2 mg % 1,10-phenanthroline, 10 mg % trypsin inhibitor, and 0.1 mM PMSF. […]

| inhibition at 0.1 µM | OT % inhibition at 100 nM | Compound |
| --- | --- | --- |
| 61% | – | O=C(NCCN1CCCCC1)c1ccc2n1Cc1ccccc1N(C(=O)c1ccc(C3CCCCC3)cc1)C2 [Example 37, 10-(4-Cyclohexyl-benzoyl)-N-[2-(1-piperidinyl)ethyl]-10,11-dihydro-5H-pyrrolo[2,1-c][1,4]benzodiazepine-3-carboxamide] |
| 57% | – | CN1CCCC1CCNC(=O)c1ccc2n1Cc1ccccc1N(C(=O)c1ccc(C3CCCCC3)cc1)C2 (stereo not shown) [Example 38, 10-(4-Cyclohexyl-benzoyl)-N-[2-(1-methyl-2-pyrrolidinyl)ethyl]-10,11-dihydro-5H-pyrrolo[2,1-c][1,4]benzodiazepine-3-carboxamide] |
| 85% | – | CN1CCC(N(C)C(=O)c2ccc3n2Cc2ccccc2N(C(=O)c2ccc(C4CCCCC4)cc2)C3)CC1 [Example 39, 10-(4-Cyclohexyl-benzoyl)-N-methyl-N-(1-methyl-4-piperidinyl)-10,11-dihydro-5H-pyrrolo[2,1-c][1,4]benzodiazepine-3-carboxamide] |
| 60% | – | CN1CCC(N(C)C(=O)c2ccc3n2Cc2ccccc2N(C(=O)c2ccc(C4CCCCC4)cc2)C3)C1 (stereo not shown) [Example 40, 10-(4-Cyclohexyl-benzoyl)-N-methyl-N-(1-methyl-3-pyrrolidinyl)-10,11-dihydro-5H-pyrrolo[2,1-c][1,4]benzodiazepine-3-carboxamide] |
| 31% | – | CN(C)CCN1CCN(C(=O)c2ccc3n2Cc2ccccc2N(C(=O)c2ccc(C4CCCCC4)cc2)C3)CC1 [Example 41, [10-(4-Cyclohexyl-benzoyl)-10,11-dihydro-5H-pyrrolo[2,1-c][1,4]benzodiazepin-3-yl]{4-[2-(dimethylamino)ethyl]-1-piperazinyl}methanone] |
| 65% | – | O=C(c1ccc2n1Cc1ccccc1N(C(=O)c1ccc(C3CCCCC3)cc1)C2)N1CCN(CCN2CCOCC2)CC1 [Example 42, [10(4-Cyclohexyl-benzoyl)-10,11-dihydro-5H-pyrrolo[2,1-c][1,4]benzodiazepin-3-yl]{4-[2-(4-morpholinyl)ethyl]-1-piperazinyl}methanone] |
| 1% | – | C=CCN1CCN(C(=O)c2ccc3n2Cc2ccccc2N(C(=O)c2ccc(C4CCCCC4)cc2)C3)CC1 [Example 43, (4-Allyl-1-piperazinyl)[10-(4-cyclohexyl-benzoyl)-10,11-dihydro-5H-pyrrolo[2,1-c][1,4]benzodiazepin-3-yl]methanone] |
| 2% | – | CC(C)N1CCN(C(=O)c2ccc3n2Cc2ccccc2N(C(=O)c2ccc(C4CCCCC4)cc2)C3)CC1 [Example 44, [10-(4-Cyclohexyl-benzoyl)-10,11-dihydro-5H-pyrrolo[2,1-c][1,4]benzodiazepin-3-yl](4-isopropyl-1-piperazinyl)methanone] |
| 71% | – | CN(C)CCCN1CCN(C(=O)c2ccc3n2Cc2ccccc2N(C(=O)c2ccc(C4CCCCC4)cc2)C3)CC1 [Example 45, [10-(4-Cyclohexyl-benzoyl)-10,11-dihydro-5H-pyrrolo[2,1-c][1,4]benzodiazepin-3-yl]{4-[3-(dimethylamino)propyl]-1-piperazinyl}methanone] |
| – | 91% | O=C(c1ccc(C2CCCCC2)cc1)N1Cc2ccc(C(=O)N3CCC[C@H]3CN3CCCC3)n2Cc2ccccc21 [Example 46, [10-(4-Cyclohexyl-benzoyl)-10,11-dihydro-5H-pyrrolo[2,1-c][1.4]benzodiazepin-3-yl][(2S)-2-(1-pyrrolidinylmethyl)pyrrolidinyl]methanone] |
| – | 82% | CN(C)[C@@H]1CCN(C(=O)c2ccc3n2Cc2ccccc2N(C(=O)c2ccc(C4CCCCC4)cc2)C3)C1 [Example 47, [10-(4-Cyclohexyl-benzoyl)-10,11-dihydro-5H-pyrrolo[2,1-C][1,4]benzodiazepin-3-yl][(3R)-3-(dimethylamino)pyrrolidinyl]methanone] |
| – | 78% | O=C(c1ccc2n1Cc1ccccc1N(C(=O)c1ccc(C3CCCCC3)cc1)C2)N1CCN(CCO)CC1 [Example 48, [10-(4-Cyclohexyl-benzoyl)-10,11-dihydro-5H-pyrrolo[2,1-c][1,4]benzodiazepin-3-y][4-(2-hydroxyethyl)-1-piperazinyl]methanone] |
| -2% | – | O=C(NCCc1ccccn1)c1ccc2n1Cc1ccccc1N(C(=O)c1ccc(C3CCCCC3)cc1)C2 [Example 49, 10-(4-Cyclohexyl-benzoyl)-N-[2-(2-pyridinyl)ethyl]-10,11-dihydro-5H-pyrrolo[2,1-c][1,4]benzodiazepine-3-carboxamide] |
| -8% | – | O=C(NCc1ccccn1)c1ccc2n1Cc1ccccc1N(C(=O)c1ccc(C3CCCCC3)cc1)C2 [Example 50, 10-(4-Cyclohexyl-benzoyl)-N-(2-pyridinylmethyl)-10,11-dihydro-5H-pyrrolo[2,1-c][1,4]benzodiazepine-3-carboxamide] |
| -8% | – | O=C(NCc1cccnc1)c1ccc2n1Cc1ccccc1N(C(=O)c1ccc(C3CCCCC3)cc1)C2 [Example 51, 10-(4-Cyclohexyl-benzoyl)-N-(3-pyridinylmethyl)-10,11-dihydro-5H-pyrrolo [2,1-c][1,4]benzodiazepine-3-carboxamide] |
| 45% | – | CN(CCc1ccccn1)C(=O)c1ccc2n1Cc1ccccc1N(C(=O)c1ccc(C3CCCCC3)cc1)C2 [Example 52, 10-(4-Cyclohexyl-benzoyl)-N-methyl-N-[2-(2-pyridinyl)-ethyl]-10,11-dihydro-5H-pyrrolo[2,1-c][1,4]benzodiazepine-3-carboxamide] |
| 25% | – | O=C(NCc1ccncc1)c1ccc2n1Cc1ccccc1N(C(=O)c1ccc(C3CCCCC3)cc1)C2 [Example 53, 10-(4-Cyclohexyl-benzoyl)-N-(4-pyridinylmethyl)-10,11-dihydro-5H-pyrrolo[2,1-c][1,4]benzodiazepine-3-carboxamide] |
| – | 4% | O=C(c1ccc2n1Cc1ccccc1N(C(=O)c1ccc(C3CCCCC3)cc1)C2)N1CCN(c2ccncc2)CC1 [Example 54, [10-(4-Cyclohexyl-benzoyl)-10,11-dihydro-5H-pyrrolo[2,1-c][1,4]benzpdiazepin-3-yl][4-(4-pyridinyl)-1-piperazinyl]-methanone] |
| 91% | – | CN(CCc1ccncc1)C(=O)c1ccc2n1Cc1ccccc1N(C(=O)c1ccc(C3CCCCC3)cc1)C2 [Example 55, 10-(4-Cyclohexyl-benzoyl)-N-methyl-N-[2(4-pyridinyl)ethyl]-10,11-dihydro-5H-pyrrolo[2,1-c][1,4]benzodiazepine-3-carboxamide] |
